One may read the MIC as the least concentration at which growth counts as inhibited.

Ends that are not written are not given here. Some results are limits rather than exact numbers.

Results on 1 substance are retold here after publication PMC10535717, “A Novel Antimicrobial Peptide, Dermaseptin-SS1, with Anti-Proliferative Activity, Isolated from the Skin Secretion of Phyllomedusa tarsius” (Molecules, 2023).

For one series, the system named is MRSA NCTC 12493. Format: cell-based, Methicillin-resistant Staphylococcus aureus. The text has this: (§1) The anti-planktonic microorganism efficacy of the peptides was investigated via minimal bacterial inhibitory concentration (MIC) and minimal bactericidal concentration (MBC) assays. Eight types of microorganisms, including Gram-positive bacteria, Staphylococcus aureus (ATCC CRM 6538), Methicillin-resistant Staphylococcus aureus (NCTC 12493), and Enterococcus faecium (NCTC 12697), Gram-negative bacteria, Escherichia coli (ATCC CRM 8739, ATCC BAA 2340, ATCC 13846, ATCC BAA 2469, and ATCC BAA 2471), Klebsiella pneumoniae (ATCC 43816), Pseudomonas aeruginosa (ATCC CRM 9027) and Acinetobacter baumannii (ATCC BAA 747) and a yeast, Candida albicans (ATCC CRM 10231) were utilized to test the antimicrobial activity of peptides.
(§2) For the MIC assay, microorganisms were inoculated with peptides in a 96-well plate. Nutrient broth (NB) was applied for MRSA, E. coli, K. pneumoniae, and P. aeruginosa, tryptic soy broth (TSB) was applied for S. aureus, E. faecium, and A. baumannii, and yeast extract peptone dextrose broth (YPD-B) was used for C. albicans. The microorganisms were cultured (bacteria: 37 °C; yeast: 26 °C) overnight at 120 rpm and subcultured to achieve the logarithmic growth stage (5 × 10^5 CFU/mL), as confirmed by viable cell counts. After that, 99 µL of the subculture and 1 µL of the peptide were added to the 96-well plate. The final concentration of peptides ranged from 128 to 1 µmol/L (µM) using a 2-fold dilution. In addition, four other groups were established simultaneously at the commencement of the test: a growth control group, a vehicle control group (Dimethyl Sulphoxide, DMSO), a positive control group utilizing Norfloxacin at a concentration of 2 mg/mL for bacteria, and Amphotericin B. at a concentration of 1 mg/mL for yeast, and a blank control group (sterile NB/TSB/YPD-B). The MIC values were measured after overnight incubation at 37/26 °C. The optical density (OD) values were analysed at 550 nm using a Synergy HT plate reader (BioTek, Washington, USA), and were calculated using the following equation:(1) Cell Viability %=[(As−A0)/(Ag−A0)]×100% where As is the absorbance value of the sample group, A0 is the average of the absorbance values of the blank control, and Ag is the average of the absorbance values of the growth control. For the MBC assay, 10 µL of the inhibited cultures on the 96-well plate were transferred onto a corresponding medium agar plate and incubated overnight at 37/26 °C to measure MBC values. The results were obtained from three independent assays.

In the next series the test system is horse erythrocytes. Put plainly: Haemolysis activity. Format: cell-based. As to conditions: concentration causing 50% haemolysis; 4% (v/v) horse red blood cells in PBS, peptide 128 to 1 µM, 37 °C 2 h, OD 570 nm, 1% Triton X-100 positive control, three separate assays. How it is done: To start, fresh defibrinated horse blood (TCS Biosciences Ltd., Buckingham, UK) was washed with PBS solution to obtain a clear supernatant. Then, a 4% (v/v) suspension of red blood cells was made in PBS. After this, 100 µL of the peptide solutions were incubated with 100 µL of the suspension of red blood cells in 2 mL centrifuge tubes at 37 °C for 2 h. The ultimate concentration of peptides ranged from 128 to 1 µM obtained by a 2-fold dilution. Also, two other groups were set simultaneously, including a positive control group of 1% Triton X-100 and a blank control group of phosphate-buffered saline (PBS). After incubation and centrifugation at 900× g for 10 min, a volume of 100 µL of the resulting supernatant from each specimen was carefully transferred to individual wells of the 96-well plate. Subsequently, the OD values were analysed using a Synergy HT plate reader (BioTek, USA) at a wavelength of 570 nm using the following equation:(2) Haemolysis Activity %=[(As−A0)/(Ap−A0)]×100% where As is the absorbance value of the supernatant of the peptide group, A0 is the average absorbance value of the blank control, and Ap is the average absorbance value of the positive control. The data were obtained from three separate assays.

The next series has as its system E. faecalis NCTC 12697. In kind it is cell-based.
For series [1], the system named is P. aeruginosa ATCC CRM 9027. Format: cell-based, Pseudomonas aeruginosa.
Source text: as §1, §2

The test system of a further series is K. pneumoniae ATCC 43816. Format: cell-based, Klebsiella pneumoniae.
Source text: as §1, §2

The next series has as its system E. coli ATCC CRM 8739. In kind it is cell-based, Escherichia coli.
Source text: as §1, §2

A further series concerns Gram-positive bacteria. Put plainly: Geometric mean of MICs and therapeutic index, Gram +. Format: cell-based. As to conditions: geometric mean of MICs of Table 3; 256.00 μM used where no activity at 128.00 μM.
Source text: as §1
(§3) For the MIC assay, microorganisms were inoculated with peptides in a 96-well plate. […] The MIC values were measured after overnight incubation at 37/26 °C. The optical density (OD) values were analysed at 550 nm using a Synergy HT plate reader (BioTek, Washington, USA), and were calculated using the following equation:(1) Cell Viability %=[(As−A0)/(Ag−A0)]×100% where As is the absorbance value of the sample group, A0 is the average of the absorbance values of the blank control, and Ag is the average of the absorbance values of the growth control. […]

A further series deals with S. aureus ATCC CRM 6538. Format: cell-based, Staphylococcus aureus.
Source text: as §1, §2

The test system of series [2] is C. albicans ATCC CRM 10231. Format: cell-based, Candida albicans.
Source text: as §1, §2

Series [3] has as its system A. baumannii ATCC BAA 747. In kind it is cell-based, Acinetobacter baumannii.
Source text: as §1, §2

Another series deals with Gram-negative bacteria. Put plainly: Geometric mean of MICs and therapeutic index, Gram −. Format: cell-based. As to conditions: geometric mean of MICs of Table 3; 256.00 μM used where no activity at 128.00 μM.
Source text: as §1, §3

As for “ALWKSILKNVGKVLNEINQIVQ-NH2 [Peptide L2V]”, the MBC in the series with MRSA NCTC 12493 is 4 µM; with E. faecalis NCTC 12697, over 128 µM; in [1] it was over 128 µM; with K. pneumoniae ATCC 43816 it was over 128 µM; in the series with E. coli ATCC CRM 8739, over 128 µM; in the series on S. aureus ATCC CRM 6538 it was over 128 µM. Besides, the MBC in [2] (ATCC CRM 10231) was over 128 µM; in [3] it was 4 µM. Further, the minimal inhibitory concentration (MIC) in the series with MRSA NCTC 12493 was 4 µM; in the series on E. faecalis NCTC 12697 it was over 128 µM; in series [1] it was over 128 µM; in the series on K. pneumoniae ATCC 43816, 8 µM; in the series on E. coli ATCC CRM 8739 it was over 128 µM; in the series with S. aureus ATCC CRM 6538 it was over 128 µM. Also, the minimum inhibitory concentration (MIC) in [2] (ATCC CRM 10231) was over 128 µM; in [3], 4 µM. Further, in the series on horse erythrocytes, the HC50 stood at 256.00. In the series with Gram-positive bacteria, the “GM Gram +” value stood at 64.00 µM. In addition, in series [2] (geometric mean of MICs of Table 3, 256.00 μM used where no activity at 128.00 μM), the “GM Yeast” value was determined as 256.00 µM. Besides, in the series on Gram-negative bacteria, the “GM Gram −” value was found to be 38.05 µM.
